In patent US20250025451A1, “TREATMENT OF CANCER WITH KDM4 INHIBITORS” (Celgene Corporation, priority 2021, published 2025):
Where two headings read alike, the source gives them in different places.

Key:
[1] = test system: KYSE-150 human esophageal cancer xenograft; format: in vivo; settings: for Median Tumor Volumes Day 21: KYSE-150 CDX Study #2, female NOD/SCID mice; for % TGI / Median Tumor Volumes Diff.: KYSE-150 Study #2; for % TGI: Day 21; for Median Tumor Volumes Diff.: Day 21 minus Day 1
Experimental: The therapeutic in vivo efficacy of Compound 1 was evaluated in SU60 colorectal cancer, KYSE-150 esophageal cancer, COH70 triple-negative breast cancer, GXA-3036 gastric adenocarcinoma and OCI-LY19 Diffuse Large B-Cell Non-Hodgkin's Lymphoma xenograft models. In all studies, efficacy was determined based on percent tumor growth inhibition (TGI), differences in mean tumor growth, and statistical assessment of differences in net tumor volume distributions on the day of TGI analysis between control and treated animals. Tolerability was assessed based on differences in mean body weights between control and treated animals over the course of the study.
Study #2—The in vivo therapeutic efficacy and tolerability of Compound 1, administered orally as the lysine salt suspended in a vehicle comprised of 10% PEG 400 and 90% of 0.5% MC, was evaluated in the KYSE-150 ESCC CDX model established in female NOD/SCID mice. Each mouse was inoculated subcutaneously in the right flank with 1×10^7 KYSE-150 tumor cells (0.1 ml) suspended in 50% Matrigel. When the average tumor size reached ˜153 mm3, test animals were randomized into 4 groups consisting of 8 mice per group and treatments were initiated. Control mice received 10% PEG 400 and 90% of 0.5% MC vehicle PO QDx21. Treated mice received the Compound 1 lysine salt form suspended in vehicle at 10, 15, or 20 mg/kg on the same schedule. TGI was determined on Day 21 as (1−Difftreated/Diffcontrol)×100. Individual tumors were measured twice weekly in two dimensions using a caliper, and the tumor volumes (TV) in mm3 were calculated using the formula: TV=0.5 a×b2, where a and b are the long and short tumor diameters in mm, respectively; Mean tumor volumes±SEM were calculated and plotted versus days of dosing (FIG. 12 left panel). Body weights were measured twice weekly. Body weights±SEM were calculated and plotted versus days of dosing (FIG. 12 right panel).
The difference in mean net tumor volumes on the day of TGI analysis for treated versus control animals was evaluated statistically using one-way ANOVA followed by Dunnetts multiple comparisons test. Adjusted p-values are shown where a calculated probability (p)≤0.05 was considered statistically significant.

PNUTS mRNA = assay: inhibition of PNUTS gene expression by qPCR in MDA-MB-231 cells; format: cell-based; settings: Homo sapiens, 24 hours
Experimental: In a study of the inhibitory effects of Compound 1 on the gene expression of PNUTS, MDA-MB-231 cells were treated for 24 hours and expression levels of PNUTS mRNA in response to Compound 1 treatment were measured by qPCR. The inhibition of PNUTS mRNA was quantified by calculating mean percent change in PNUTS gene expression following the Compound 1 treatment relative to the DMSO-treated control and IC50 value was calculated as concentration where inhibition was half-maximal. The IC50 value was 0.007 μM.

CC(C)c1ccc(N(C)c2ccc3c(c2)OCC[C@H]3CNc2cnccc2C(=O)O)cc1 [Compound 1, 3-({[(4R)-7-{methyl[4-(propan-2-yl)phenyl]amino}-3,4-dihydro-2H-1-benzopyran-4-yl]methyl}amino)pyridine-4-carboxylic acid]
Median Tumor Volumes Day 21 ([1]; lysine salt 10 mg/kg (free acid equivalents) PO QD x21): 1027 mm^3 | Median Tumor Volumes Day 21 ([1]; lysine salt 15 mg/kg (free acid equivalents) PO QD x21): 620 mm^3 | Median Tumor Volumes Day 21 ([1]; lysine salt 20 mg/kg (free acid equivalents) PO QD x21): 469 mm^3 | % TGI ([1]; 10 mg/kg PO QD x21): 54% | Median Tumor Volumes Diff. ([1]; 10 mg/kg PO QD x21): 876 mm^3 | % TGI ([1]; 15 mg/kg PO QD x21): 76% | Median Tumor Volumes Diff. ([1]; 15 mg/kg PO QD x21): 468 mm^3 | % TGI ([1]; 20 mg/kg PO QD x21): 84% | Median Tumor Volumes Diff. ([1]; 20 mg/kg PO QD x21): 315 mm^3 | IC50 (PNUTS mRNA): 7 nM
